Test results as given in ChEMBL document CHEMBL4706484, “Apigenin-rivastigmine hybrids as multi-target-directed liagnds for the treatment of Alzheimer's disease” (Eur J Med Chem, 2020).
Calls of active or inactive are those of the source. The rule behind the calls is not given here.

Assays:
PC-12 = experiment: Neuroprotective activity against H2O2-induced cell injury in rat PC-12 cells assessed as increase in cell viability causing decrease in LDH content preincubated for 2 hrs followed by H2O2 addition and measured after 24 hrs by LDH assay; type: functional, cell-based; details: dose 5-10 µM, time 26.0 hrs
[1] = Metal chelating activity assessed as Fe2+-compound complex formation at 37.5 uM in presence of 37.5 uM FeSO4 by UV-Vis spectrophotometric analysis
[2] = Cytotoxicity against human L02 cells assessed as cell viability at 12.5 uM measured after 72 hrs by MTT assay relative to control; type: cell-based; details: read-out: Activity
[3] = Cytotoxicity against human L02 cells assessed as cell viability at 25 uM measured after 72 hrs by MTT assay relative to control; type: cell-based; details: read-out: Activity
[4] = Cytotoxicity against human L02 cells assessed as cell viability at 50 uM measured after 72 hrs by MTT assay relative to control; type: cell-based; details: read-out: Activity
[5] = Permeability of the compound in PBS/EtOH (70:30) at 100 ug/ml by PAMPA-BBB assay; type: ADME; details: dose 100 µg/ml, read-out: permeability
[6] = Acute toxicity in 2 dpf zebrafish assessed as precipitation at 20 ug/ml measured after 3 days; set-up: species or system Danio rerio; details: in vivo, 72 h, dose 20 µg/ml, time 3 day
[7] = Acute toxicity in 2 dpf zebrafish assessed as slow blood flow at 1.39 to 12.5 ug/ml measured after 3 days; type: tissue-based, Danio rerio; details: 72 h, dose 1.39-12.5 µg/ml, time 3 day
[8] = Acute toxicity in 2 dpf zebrafish assessed as abnormal liver size at 1.39 to 12.5 ug/ml measured after 3 days; set-up: species or system Danio rerio; details: in vivo, 72 h, dose 1.39-12.5 µg/ml, time 3 day
[9] = Acute toxicity in 2 dpf zebrafish assessed as dark brown liver at 1.39 to 12.5 ug/ml measured after 3 days; set-up: species or system Danio rerio; details: in vivo, 72 h, dose 1.39-12.5 µg/ml, time 3 day
[10] = Acute toxicity in 2 dpf zebrafish assessed as abnormal tail at 1.39 to 12.5 ug/ml measured after 3 days; set-up: species or system Danio rerio; details: in vivo, 72 h, dose 1.39-12.5 µg/ml, time 3 day
[11] = Acute toxicity in 2 dpf zebrafish assessed as abnormal notochord at 1.39 to 12.5 ug/ml measured after 3 days; set-up: species or system Danio rerio; details: in vivo, 72 h, dose 1.39-12.5 µg/ml, time 3 day
[12] = Acute toxicity in 2 dpf zebrafish assessed as abnormal pigmentation at 1.39 to 12.5 ug/ml measured after 3 days; set-up: species or system Danio rerio; details: in vivo, 72 h, dose 1.39-12.5 µg/ml, time 3 day
[13] = Acute toxicity in 2 dpf zebrafish assessed as body shape at 1.39 to 12.5 ug/ml measured after 3 days; set-up: species or system Danio rerio; details: in vivo, 72 h, dose 1.39-12.5 µg/ml, time 3 day
[14] = Toxicity in 3 dpf zebrafish model of AlCl3-induced AD assessed as minimum toxic concentration; set-up: species or system Danio rerio; details: in vivo
Danio rerio [15] = species on record: Danio rerio; experiment: Antialzheimer activity against 3 dpf zebrafish model of AlCl3-induced AD assessed as change in motility distance at 4.2 ug/ml (reference value: 5204 mm); type: functional; details: dose 4.2 µg/ml
Danio rerio [16] = species on record: Danio rerio; experiment: Antialzheimer activity against 3 dpf zebrafish model of AlCl3-induced AD assessed as change in motility distance at 12.5 ug/ml (reference value: 5204 mm); type: functional; details: dose 12.5 µg/ml
Danio rerio [17] = species on record: Danio rerio; experiment: Antialzheimer activity against 3 dpf zebrafish model of AlCl3-induced AD assessed as increase in motility distance; type: functional, organism-based
Danio rerio [18] = species on record: Danio rerio; experiment: Antialzheimer activity against 3 dpf zebrafish model of AlCl3-induced AD assessed as efficacy on motility distance at 1.4 ug/ml relative to control; type: functional; details: dose 1.4 µg/ml
Danio rerio [19] = species on record: Danio rerio; experiment: Antialzheimer activity against 3 dpf zebrafish model of AlCl3-induced AD assessed as efficacy on motility distance at 4.2 ug/ml relative to control; type: functional; details: dose 4.2 µg/ml
Danio rerio [20] = species on record: Danio rerio; experiment: Antialzheimer activity against 3 dpf zebrafish model of AlCl3-induced AD assessed as efficacy on motility distance at 12.5 ug/ml relative to control; type: functional; details: dose 12.5 µg/ml
Danio rerio [21] = species on record: Danio rerio; experiment: Protection against amyloid beta (1 to 40 residues)-induced vascular injury in transgenic zebrafish assessed as vascular injury rate at 12.5 ug/ml (reference value: 73.3 %); type: functional; details: dose 12.5 µg/ml
Danio rerio [22] = species on record: Danio rerio; experiment: Protection against amyloid beta (1 to 40 residues)-induced vascular injury in transgenic zebrafish assessed as efficacy on motility at 4.2 ug/ml relative to control; type: functional; details: dose 4.2 µg/ml
[23] = Acute toxicity in Kunming mouse at 1000 mg/kg; type: organism-based; details: in vivo
[24] = Acute toxicity in Kunming mouse assessed as dispirited at 2000 mg/kg; type: organism-based; details: in vivo
Mus musculus [25] = experiment: Reversal of scopolamine-induced Kunming mouse model of memory impairment assessed as spontaneous alteration at 20 mg/kg by Y-maze test (reference value: 41.6 %); type: functional
Mus musculus [26] = experiment: Antialzheimer activity in scopolamine-induced Kunming mouse model of memory impairment assessed as Q30 bases ratio (raw data) in brain hippocampus at 10 mg/kg by illumina sequencing method (reference value: 93.53 %); type: functional
Mus musculus [27] = experiment: Antialzheimer activity in scopolamine-induced Kunming mouse model of memory impairment assessed as GC bases ratio (QC data) in brain hippocampus at 10 mg/kg by illumina sequencing method (reference value: 53.64 %); type: functional
Mus musculus [28] = experiment: Antialzheimer activity in scopolamine-induced Kunming mouse model of memory impairment assessed as total reads in brain hippocampus at 10 mg/kg by illumina sequencing method (reference value: 100 %); type: functional
[29] = Drug metabolism in rat liver microsomes assessed as metabolite formation by UPLC-MS/MS analysis; type: ADME, Microsome
[30] = Drug metabolism in human liver microsomes assessed as metabolite formation by UPLC-MS/MS analysis; type: ADME, Microsome

SMILES: CCN(C)C(=O)Oc1ccc(-c2cc(=O)c3c(O)cc(OC(=O)N(C)CC)cc3o2)cc1
- Activity (PC-12): Dose-dependent effect
- Activity [1]: inactive
- viability at 72 h, 12.5 µM [2]: 95.6%
- viability at 72 h, 25 µM [3]: 83.9%
- viability at 72 h, 50 µM [4]: 59.7%
- Papp at 100 ug/ml [5]: 15.5 ×10⁻⁶ cm/s
- Activity [6]: Toxic
- Activity [7]: Non-Toxic
- Activity [8]: Non-Toxic
- Activity [9]: Non-Toxic
- Activity [10]: Non-Toxic
- Activity [11]: Non-Toxic
- Activity [12]: Non-Toxic
- Activity [13]: Non-Toxic
- MTC [14]: 12.5 µg/mL
- Activity (Danio rerio [15]): 6562 mm
- Activity (Danio rerio [16]): 6733 mm
- Activity (Danio rerio [17]): Dose-dependent effect
- Efficacy (Danio rerio [18]): 59%
- Efficacy (Danio rerio [19]): 65%
- Efficacy (Danio rerio [20]): 73%
- Activity (Danio rerio [21]): 27%
- Efficacy (Danio rerio [22]): 27%
- Activity [23]: Non-Toxic
- Activity [24]: Toxic
- Activity (Mus musculus [25]): 57.1%
- Activity (Mus musculus [26]): 92.76%
- Activity (Mus musculus [27]): 60.72%
- Activity (Mus musculus [28]): 100%
- Drug metabolism [29]: Metabolite_Detected
- Drug metabolism [30]: Metabolite_Detected
